# Reference: patent US20180194762A1 (Pharmacyclics LLC, priority 2017, published 2018)
# pIC50: −log10 of the molar value. Read-outs that look alike come from different tables or passages of the source.
# Experiments:
# Type in all cases: biochemical
# panel of kinases = molecular target: T1, panel of kinases (Homo sapiens, UniProt P51813); assay: Inhibition of a panel of kinases (in vitro HotSpot kinase assay, 33P-ATP, 1 μM ATP), other kinases; settings: BMX wild-type, read-out: BMX-WT IC50
# T1 sequence (P51813 1-675): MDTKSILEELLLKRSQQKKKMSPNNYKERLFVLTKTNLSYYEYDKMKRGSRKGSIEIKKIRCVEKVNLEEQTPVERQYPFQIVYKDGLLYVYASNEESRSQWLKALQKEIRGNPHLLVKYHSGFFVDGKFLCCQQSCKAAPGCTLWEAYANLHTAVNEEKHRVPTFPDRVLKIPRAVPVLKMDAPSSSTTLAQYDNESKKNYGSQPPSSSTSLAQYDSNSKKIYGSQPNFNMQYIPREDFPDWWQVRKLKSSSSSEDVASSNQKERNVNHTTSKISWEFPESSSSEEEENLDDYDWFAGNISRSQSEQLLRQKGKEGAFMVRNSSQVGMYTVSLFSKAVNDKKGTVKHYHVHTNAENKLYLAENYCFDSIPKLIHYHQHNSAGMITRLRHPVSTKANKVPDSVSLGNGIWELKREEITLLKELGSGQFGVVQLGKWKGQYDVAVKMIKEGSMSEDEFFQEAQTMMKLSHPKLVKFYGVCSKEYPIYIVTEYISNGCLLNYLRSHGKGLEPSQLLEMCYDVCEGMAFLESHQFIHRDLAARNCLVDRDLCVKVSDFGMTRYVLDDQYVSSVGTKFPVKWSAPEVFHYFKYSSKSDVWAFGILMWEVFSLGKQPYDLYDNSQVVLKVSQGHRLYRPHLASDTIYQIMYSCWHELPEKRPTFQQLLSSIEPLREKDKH
# How it was run: (§1)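 At 1 μM ATP spiked with 33P-ATP, substrate phosphorylation by the purified enzymes gives the extent of inhibition.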
# TEC = molecular target: T2, TEC (Homo sapiens, UniProt P42680); assay: Inhibition of a panel of kinases (in vitro HotSpot kinase assay, 33P-ATP, 1 μM ATP); settings: for pIC50: HotSpot kinase assay, 1 μM ATP; for TEC/Btk: ratio of TEC IC50 to Btk IC50 (selectivity)
# T2 sequence (P42680 1-631): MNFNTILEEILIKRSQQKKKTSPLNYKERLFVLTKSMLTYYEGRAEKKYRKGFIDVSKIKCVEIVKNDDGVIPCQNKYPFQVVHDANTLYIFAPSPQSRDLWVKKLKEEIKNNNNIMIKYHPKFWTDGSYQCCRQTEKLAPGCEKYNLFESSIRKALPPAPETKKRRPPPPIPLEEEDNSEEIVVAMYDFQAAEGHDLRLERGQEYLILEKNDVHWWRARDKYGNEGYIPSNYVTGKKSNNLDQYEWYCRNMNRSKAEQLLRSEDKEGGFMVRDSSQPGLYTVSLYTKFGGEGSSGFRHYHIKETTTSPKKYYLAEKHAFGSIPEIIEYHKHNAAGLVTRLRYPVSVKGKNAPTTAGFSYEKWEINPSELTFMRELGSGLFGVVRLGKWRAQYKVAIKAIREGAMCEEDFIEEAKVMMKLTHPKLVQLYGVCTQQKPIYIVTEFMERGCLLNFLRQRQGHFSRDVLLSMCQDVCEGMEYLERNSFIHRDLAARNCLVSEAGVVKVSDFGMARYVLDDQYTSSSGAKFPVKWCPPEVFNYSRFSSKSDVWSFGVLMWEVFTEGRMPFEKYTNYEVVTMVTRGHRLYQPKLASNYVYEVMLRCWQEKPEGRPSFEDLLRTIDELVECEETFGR
# How it was run: as §1
# Btk = molecular target: T3, Btk (Homo sapiens, UniProt Q06187); assay: Btk in vitro inhibitory activity (one of Method A TR-FRET, Method B electrophoretic mobility shift, Method C radiometric filter binding)
# T3 construct: purified from insect cells as a full-length construct containing a N-terminal 6X-His tag; His6 (N); made in house; host or cells: insect cells (Method C)
# T3 sequence (Q06187 whole entry): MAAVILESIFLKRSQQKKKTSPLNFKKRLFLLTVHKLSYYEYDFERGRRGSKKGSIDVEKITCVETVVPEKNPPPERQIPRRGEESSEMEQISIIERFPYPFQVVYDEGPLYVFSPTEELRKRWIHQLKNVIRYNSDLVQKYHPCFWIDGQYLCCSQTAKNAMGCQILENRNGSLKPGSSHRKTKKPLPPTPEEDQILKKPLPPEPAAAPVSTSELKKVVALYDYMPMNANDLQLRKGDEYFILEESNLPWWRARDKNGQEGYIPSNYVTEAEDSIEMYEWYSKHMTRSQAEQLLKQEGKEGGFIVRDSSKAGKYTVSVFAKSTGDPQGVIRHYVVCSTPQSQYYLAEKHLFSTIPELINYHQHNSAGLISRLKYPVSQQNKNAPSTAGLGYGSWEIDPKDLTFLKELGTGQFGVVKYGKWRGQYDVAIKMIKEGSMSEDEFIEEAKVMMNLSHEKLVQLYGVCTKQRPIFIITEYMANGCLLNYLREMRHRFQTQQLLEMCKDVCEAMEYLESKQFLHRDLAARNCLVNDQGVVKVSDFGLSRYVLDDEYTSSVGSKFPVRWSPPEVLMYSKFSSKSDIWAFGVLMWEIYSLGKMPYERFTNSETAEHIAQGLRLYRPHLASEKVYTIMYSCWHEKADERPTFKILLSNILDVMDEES
# How it was run: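 Three alternative formats were used. A radiometric filter-binding read used 8 nM full-length His-BTK with 0.2 mg/mL poly(Glu-Tyr) 4:1 (C); microfluidic separation of 1 μM FAM-peptide by 1 nM BTK gave IC50 from 12-point curves (B); TR-FRET at Km ATP, 0.5 nM Btk, gave Ki(app)-derived IC50 (A).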
# [1] = method is one of A, B or C, not stated which, read-out: IC50 values against Btk
# [2] = wild-type Btk, read-out: Btk-WT IC50
pIC50 (panel of kinases),pIC50 (TEC),TEC/Btk (TEC),pIC50 (Btk; [1]),pIC50 (Btk; [2]),Structure (SMILES)
6.66,6.39,959,> 8.00,9.38,"C=CC(=O)N1CC[C@@H](Nc2n[nH]c3nccc(-c4ccc(CNC(=O)c5ccn(C(C)(C)C)n5)c(F)c4)c23)C1 [Example 66, 1-tert-butyl-N-{[2-fluoro-4-(3-{[(3R)-1-(prop-2-enoyl)pyrrolidin-3-yl]amino}-1H-pyrazolo[3,4-b]pyridin-4-yl)phenyl]methyl}-1H-pyrazole-3-carboxamide]"
6.80,6.47,605,,9.25,"C=CC(=O)N1CCC(Cc2n[nH]c3nccc(-c4ccc(CNC(=O)c5noc(C(C)(C)C)n5)c(F)c4)c23)C1 (stereo not drawn) [Example 275, 5-tert-butyl-N-{[2-fluoro-4-(3-{[1-(prop-2-enoyl)pyrrolidin-3-yl]methyl}-1H-pyrazolo[3,4-b]pyridin-4-yl)phenyl]methyl}-1,2,4-oxadiazole-3-carboxamide]"
6.27,6.59,429,> 8.00,9.22,"C[C@H]1CC[C@@H](Nc2n[nH]c3nccc(-c4ccc(CNC(=O)c5noc(C(C)(C)C)n5)c(F)c4)c23)CN1C=O [Example 68, 5-tert-butyl-N-{[2-fluoro-4-(3-{[(3R,6S)-1-formyl-6-methylpiperidin-3-yl]amino}-1H-pyrazolo[3,4-b]pyridin-4-yl)phenyl]methyl}-1,2,4-oxadiazole-3-carboxamide]"
6.23,6.02,88,,7.96,"CN(C)C/C=C/C(=O)N1CC[C@@H](Nc2n[nH]c3nccc(-c4ccc(C5(NC(=O)c6noc(C(C)(C)C)n6)CC5)cc4)c23)C1 [Compound 29, (R,E)-5-(tert-butyl)-N-(1-(4-(3-((1-(4-(dimethylamino)but-2-enoyl)pyrrolidin-3-yl)amino)-1H-pyrazolo[3,4-b]pyridin-4-yl)phenyl)cyclopropyl)-1,2,4-oxadiazole-3-carboxamide]"
5.19,5.20,246,,7.59,"CN(C)C(=O)N1CC[C@@H](Nc2n[nH]c3nccc(-c4ccc(CNC(=O)c5cc(C(C)(C)C)on5)c(F)c4)c23)C1 [Example 115, 5-tert-butyl-N-{[4-(3-{[(3R)-1-(dimethylcarbamoyl)pyrrolidin-3-yl]amino}-1H-pyrazolo[3,4-b]pyridin-4-yl)-2-fluorophenyl]methyl}-1,2-oxazole-3-carboxamide]"
6.33,5.52,,,6.97,"C=CC(=O)N1CCC(Nc2n[nH]c3nccc(-c4ccc(CNCc5noc(C(C)(C)C)n5)c(F)c4)c23)C1 (stereo not drawn) [Example 310, 1-[3-({4-[4-({[(5-tert-butyl-1,2,4-oxadiazol-3-yl)methyl]amino}methyl)-3-fluorophenyl]-1H-pyrazolo[3,4-b]pyridin-3-yl}amino)pyrrolidin-1-yl]prop-2-en-1-one]"
< 5.00,5.52,12,,6.60,"CC1(C(=O)N2CC[C@@H](Nc3n[nH]c4nccc(-c5ccc(CNC(=O)c6ccc(C7CC7)cc6)c(F)c5)c34)C2)COC1 [Compound 41, 4-cyclopropyl-N-{[2-fluoro-4-(3-{[(3R)-1-(3-methyloxetane-3-carbonyl)pyrrolidin-3-yl]amino}-1H-pyrazolo[3,4-b]pyridin-4-yl)phenyl]methyl}benzamide]"
6.65,6.46,252,> 8.00,8.86,"C=CC(=O)N1CC[C@@H](Nc2n[nH]c3nccc(-c4ccc(C(C)(C)NC(=O)c5noc(C(C)(C)C)n5)cc4)c23)C1 [Example 134, 5-tert-butyl-N-{2-[4-(3-{[(3R)-1-(prop-2-enoyl)pyrrolidin-3-yl]amino}-1H-pyrazolo[3,4-b]pyridin-4-yl)phenyl]propan-2-yl}-1,2,4-oxadiazole-3-carboxamide]"
5.87,6.11,,,9.63,"C[C@H]1CC[C@@H](Nc2n[nH]c3nccc(-c4ccc(CNC(=O)c5nc(C(C)(C)C)no5)c(F)c4)c23)CN1C(=O)N(C)C [Example 391, (2S,5R)-5-{[4-(4-{[(3-tert-butyl-1,2,4-oxadiazole-5-carbonyl)amino]methyl}-3-fluorophenyl)-1H-pyrazolo[3,4-b]pyridin-3-yl]amino}-N,N,2-trimethylpiperidine-1-carboxamide]"
5.69,6.27,,,8.97,"COC(=O)N1C[C@H](Nc2n[nH]c3nccc(-c4ccc(CNC(=O)c5nc(C(C)(C)C)no5)c(F)c4)c23)CC[C@@H]1C [Example 410, methyl (2S,5R)-5-{[4-(4-{[(3-tert-butyl-1,2,4-oxadiazole-5-carbonyl)amino]methyl}-3-fluorophenyl)-1H-pyrazolo[3,4-b]pyridin-3-yl]amino}-2-methylpiperidine-1-carboxylate]"
5.91,6.09,2173,,9.43,"CC(C)(C)c1noc(C(=O)NCc2ccc(-c3ccnc4[nH]nc(N5CCC(NC(=O)C6CC6)CC5)c34)cc2F)n1 [Example 207, 3-tert-butyl-N-{[4-(3-{4-[(cyclopropanecarbonyl)amino]piperidin-1-yl}-1H-pyrazolo[3,4-b]pyridin-4-yl)-2-fluorophenyl]methyl}-1,2,4-oxadiazole-5-carboxamide]"
6.35,6.13,,,8.13,"C=CC(=O)N[C@@H]1CC[C@H](C)N(c2n[nH]c3nccc(-c4ccc(CNC(=O)c5cc(C(C)(C)C)on5)c(F)c4)c23)C1 [Example 323, 5-tert-butyl-N-{[2-fluoro-4-(3-{(2S,5R)-2-methyl-5-[(prop-2-enoyl)amino]piperidin-1-yl}-1H-pyrazolo[3,4-b]pyridin-4-yl)phenyl]methyl}-1,2-oxazole-3-carboxamide]"
5.50,5.92,,,9.04,"CC(=O)OCC(=O)N1C[C@H](Nc2n[nH]c3nccc(-c4ccc(CNC(=O)c5nc(C(C)(C)C)no5)c(F)c4)c23)CC[C@@H]1C [Example 421, 2-[(2S,5R)-5-{[4-(4-{[(3-tert-butyl-1,2,4-oxadiazole-5-carbonyl)amino]methyl}-3-fluorophenyl)-1H-pyrazolo[3,4-b]pyridin-3-yl]amino}-2-methylpiperidin-1-yl]-2-oxoethyl acetate]"
5.82,5.74,,,6.32,"C=CC(=O)N1CC[C@@H](Nc2n[nH]c3nccc(-c4ccnc(N5CCn6c(cc7c6CC(C)(C)C7)C5=O)c4C=O)c23)C1 [Example 286, (R)-2-(7,7-dimethyl-1-oxo-1,3,4,6,7,8-hexahydro-2H-cyclopenta[4,5]pyrrolo[1,2-a]pyrazin-2-yl)-4-(3-{[1-(prop-2-enoyl)pyrrolidin-3-yl]amino}-1H-pyrazolo[3,4-b]pyridin-4-yl)pyridine-3-carbaldehyde]"
6.24,6.11,4199,,9.73,"C[C@@H](NC(=O)c1nc(C(C)(C)C)no1)c1ccc(-c2ccnc3[nH]nc(N4CCOCC4)c23)cc1 [Example 219, 3-tert-butyl-N-[(1R)-1-{4-[3-(morpholin-4-yl)-1H-pyrazolo[3,4-b]pyridin-4-yl]phenyl}ethyl]-1,2,4-oxadiazole-5-carboxamide]"
